From patent US5068183A, “Method for measurement of α-amylase activity” (Kurita Water Industries, Ltd., priority 1986, dated 1991)

Columns and labels:
[1] = test system: α-amylase; experiment: Measurement of α-amylase activity with Reagent I (substrate, α-glucosidase, mannitol dehydrogenase, NADH); assay type: biochemical; conditions: substrate 1 mmol/l; sample serum containing 90 mU/ml and 270 mU/ml; 37° C., 10 minutes; linear after 6 minutes
Description: When the substrate and glucosidase as a coupled enzyme are added to a sample such as a body fluid or the like, the reaction proceeds as shown below in the case of the malto-oligo saccharide represented by general formula (I) (hereinafter MeG5 F represented by general formula (IV) is used as a specific example of general formula (I)). [drawing 6]
The thus liberated monosaccharides such as fructose or the like and derivatives thereof are reacted with, for example, mannitol dehydrogenase (MDH) or sorbitol dehydrogenase (SDH) in the presence of NADH thereby to produce […]; by the change in absorbancy, the amount of fructose can be determined. [drawing 7]
Reagent I was prepared by the following formulation.
(§1) 1 mmol/l (final concentration)
(§2) 25 U/ml (final concentration)
40 U/ml (final concentration)
NADH 0.16 mmol/l (final concentration)
(§3) 100 mmol/l (final concentration)
100 mmol/1 (final concentration) To 800 μl of Reagent I described above was added 100 μl of a sample serum containing 90 mU/ml and 270 mU/ml, respectively. While incubating at 37° C. for 10 minutes, change in absorbancy was measured at 340 nm.
Measurement was performed in a similar manner except that 100 mg/ml of glucose was further added to each sample serum.

[2] = test system: α-amylase; experiment: Measurement of α-amylase activity with Reagent II (substrate, α-glucosidase, inositol dehydrogenase, NAD); assay type: biochemical; conditions: substrate 1 mmol/l; sample serum containing 55 mU/ml and 220 mU/ml; 37° C., 10 minutes; linear after 4 minutes
Description: On the other hand, in the case of using the malto-oligo saccharide represented by general formula (V), when the substrate and glucosidase as a coupled enzyme are added to a sample such as a body fluid or the like, the reaction proceeds as shown below (hereinafter G5 I represented by general formula (VI) is used as a specific example of general formula (V)). [drawing 8]
The thus liberated inositol or derivatives thereof are reacted with inositol dehydrogenase (IDH) in the presence of NAD thereby to produce NADH; by the change in absorbancy, the amount of inositol can be determined. [drawing 9]
Reagent II was prepared by the following formulation.
as §1, §2
40 U/ml (final concentration
NAD 40 mmol/l (final concentration)
as §3
To 800 μl of Reagent II described above was added 100 μl of a sample serum containing 55 mU/ml and 220 mU/ml, respectively. While incubating at 37° C. for 10 minutes, change in absorbancy was measured at 340 nm.
Measurement was performed in a similar manner as in Example 5 except that 100 mg/ml of glucose was further added to each sample serum.

Compound	change in absorbancy at 340 nm (FIG. 1) [1]	change in absorbancy at 340 nm (FIG. 2) [2]
COC[C@H]1O[C@H](O[C@H]2[C@H](O)[C@@H](O)[C@@H](O[C@H]3[C@H](O)[C@@H](O)[C@@H](O[C@H]4[C@H](O)[C@@H](O)[C@@H](O[C@H]5[C@H](O)[C@@H](O)[C@@H](O[C@]6(CO)O[C@H](CO)[C@@H](O)[C@@H]6O)O[C@@H]5CO)O[C@@H]4CO)O[C@@H]3CO)O[C@@H]2CO)[C@H](O)[C@@H](O)[C@@H]1OC [MeG5 F]	good linear relationship was obtained in any concentration after 6 minutes	
OC[C@H]1O[C@H](O[C@H]2[C@H](O)[C@@H](O)[C@@H](O[C@H]3[C@H](O)[C@@H](O)[C@@H](O[C@H]4[C@H](O)[C@@H](O)[C@@H](O[C@H]5[C@H](O)[C@@H](O)[C@@H](OC6C(O)C(O)C(O)C(O)C6O)O[C@@H]5CO)O[C@@H]4CO)O[C@@H]3CO)O[C@@H]2CO)[C@H](O)[C@@H](O)[C@@H]1O (some centres unmarked) [G5 I]		good linear relationship was obtained in any concentration after 4 minutes
